From PubChem BioAssay (NCI)
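How tested: cells in 96-well plates exposed to compound for 48 hours at five concentrations. The concentration for 50% growth inhibition is given as GI50. TGI: concentration producing complete growth inhibition.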

Legend:
Experiment in all cases: growth of human tumour cells (NCI), 48 h
[1] = system: 786-0 renal
[2] = system: A498 renal
[3] = system: A549 NSCLC
[4] = system: ACHN renal
[5] = system: BT-549 breast
[6] = system: CAKI-1 renal
[7] = system: CCRF-CEM leukemia
[8] = system: COLO 205 colon
[9] = system: DU-145 prostate
[10] = system: EKVX NSCLC
[11] = system: HCC-2998 colon
[12] = system: HCT-116 colon
[13] = system: HCT-15 colon
[14] = system: HL-60(TB) leukemia
[15] = system: HOP-62 NSCLC
[16] = system: HOP-92 NSCLC
[17] = system: HS 578T breast
[18] = system: HT29 colon
[19] = system: IGROV1 ovarian
[20] = system: K-562 leukemia
[21] = system: KM12 colon
[22] = system: LOX IMVI melanoma
[23] = system: M14 melanoma
[24] = system: MALME-3M melanoma
[25] = system: MCF7 breast
[26] = system: MDA-MB-231 breast
[27] = system: MDA-MB-435
[28] = system: MOLT-4 leukemia
[29] = system: NCI-H226 lung
[30] = system: NCI-H23 lung
[31] = system: NCI-H460 lung
[32] = system: NCI-H522 lung
[33] = system: NCI/ADR-RES ovarian
[34] = system: OVCAR-3 ovarian
[35] = system: OVCAR-4 ovarian
[36] = system: OVCAR-5 ovarian
[37] = system: OVCAR-8 ovarian
[38] = system: PC-3 prostate
[39] = system: RPMI-8226 leukemia
[40] = system: RXF 393 renal
[41] = system: SF-268 CNS
[42] = system: SF-295 CNS
[43] = system: SF-539 CNS
[44] = system: SK-MEL-2 melanoma
[45] = system: SK-MEL-28 melanoma
[46] = system: SK-MEL-5 melanoma
[47] = system: SK-OV-3 ovarian
[48] = system: SN12C renal
[49] = system: SNB-19 CNS
[50] = system: SNB-75 CNS
[51] = system: SR leukemia
[52] = system: SW-620 colon
[53] = system: T-47D breast
[54] = system: TK-10 renal
[55] = system: U251 CNS
[56] = system: UACC-257 melanoma
[57] = system: UACC-62 melanoma
[58] = system: UO-31 renal

COc1cc2c(O[C@@H]3OC[C@H](OC(C)=O)[C@H](OC(C)=O)[C@H]3O)c3c(c(-c4ccc5c(c4)OCO5)c2cc1OC)C(=O)OC3
GI50 [1]: 2030 nM
TGI [1]: > 7810 nM
GI50 [2]: 1130 nM
TGI [2]: > 10000 nM
GI50 [3]: 613 nM
TGI [3]: > 10000 nM
GI50 [4]: 566 nM
TGI [4]: > 10000 nM
GI50 [5]: 72.2 nM
TGI [5]: > 7760 nM
GI50 [6]: 93.1 nM
TGI [6]: > 10000 nM
GI50 [7]: 498 nM
TGI [7]: > 10000 nM
GI50 [8]: 76.4 nM
TGI [8]: > 10000 nM
GI50 [9]: 754 nM
TGI [9]: > 10000 nM
GI50 [10]: 859 nM
TGI [10]: > 10000 nM
GI50 [11]: 1560 nM
TGI [11]: > 10000 nM
GI50 [12]: 167 nM
TGI [12]: > 10000 nM
GI50 [13]: 725 nM
TGI [13]: > 10000 nM
GI50 [14]: 433 nM
TGI [14]: > 10000 nM
GI50 [15]: 797 nM
TGI [15]: > 10000 nM
GI50 [16]: 178 nM
TGI [16]: 1400 nM
GI50 [17]: 3990 nM
TGI [17]: > 10000 nM
GI50 [18]: 165 nM
TGI [18]: > 10000 nM
GI50 [19]: 400 nM
TGI [19]: > 10000 nM
GI50 [20]: 436 nM
TGI [20]: > 10000 nM
GI50 [21]: 471 nM
TGI [21]: > 10000 nM
GI50 [22]: 23.3 nM
TGI [22]: 90.8 nM
GI50 [23]: 192 nM
TGI [23]: 649 nM
GI50 [24]: 565 nM
TGI [24]: > 5340 nM
GI50 [25]: 684 nM
TGI [25]: > 10000 nM
GI50 [26]: 75.4 nM
TGI [26]: 1800 nM
GI50 [27]: 359 nM
TGI [27]: 3060 nM
GI50 [28]: 437 nM
TGI [28]: > 10000 nM
GI50 [29]: 253 nM
TGI [29]: > 10000 nM
GI50 [30]: 3240 nM
TGI [30]: > 10000 nM
GI50 [31]: 255 nM
TGI [31]: > 10000 nM
GI50 [32]: 252 nM
TGI [32]: > 10000 nM
GI50 [33]: 1830 nM
TGI [33]: > 10000 nM
GI50 [34]: > 5480 nM
TGI [34]: > 10000 nM
GI50 [35]: > 3120 nM
TGI [35]: > 10000 nM
GI50 [36]: 112 nM
TGI [36]: > 10000 nM
GI50 [37]: 189 nM
TGI [37]: > 10000 nM
GI50 [38]: 870 nM
TGI [38]: > 10000 nM
GI50 [39]: 64.7 nM
TGI [39]: > 3750 nM
GI50 [40]: 267 nM
TGI [40]: > 10000 nM
GI50 [41]: 1470 nM
TGI [41]: > 10000 nM
GI50 [42]: 270 nM
TGI [42]: 923 nM
GI50 [43]: 437 nM
TGI [43]: > 10000 nM
GI50 [44]: 1050 nM
TGI [44]: 6910 nM
GI50 [45]: 264 nM
TGI [45]: 2870 nM
GI50 [46]: 57.2 nM
TGI [47]: > 10000 nM
GI50 [48]: 284 nM
TGI [48]: > 10000 nM
GI50 [49]: > 9570 nM
TGI [49]: > 10000 nM
GI50 [50]: 274 nM
TGI [50]: > 5890 nM
GI50 [51]: 59 nM
TGI [51]: > 10000 nM
GI50 [52]: 491 nM
TGI [52]: > 10000 nM
GI50 [53]: 115 nM
TGI [53]: > 10000 nM
TGI [54]: > 10000 nM
GI50 [55]: 1160 nM
TGI [55]: > 10000 nM
GI50 [56]: 276 nM
TGI [56]: 1170 nM
GI50 [57]: 155 nM
TGI [57]: 517 nM
GI50 [58]: 1780 nM
TGI [58]: 6740 nM
